“And” between values parts separate entries of the source, which are not always exact repeats. Identical values can stand only once.
Assays:
SARS-CoV-2 PLpro = SARS-CoV-2 PLpro (Severe acute respiratory syndrome coronavirus 2, UniProt P0DTD1); test: biochemical; conditions: for IC50: pH 7.3, read-out: IC50
SARS-CoV-2 = test: microbe, parasite or virus in culture; assay type: cell-based, SARS-CoV-2 (nCoV/Washington/1/2020) in Vero E6 cells; conditions: Vero E6, SARS-CoV-2

Cc1ccc(NC(=O)NC(N)=O)cc1C(=O)N[C@H](C)c1cccc2ccccc12 [Compound 2, 5-carbamylurea-2-methyl-N-[(1R)-1-naphthalen-1-ylethyl]benzamide]
PLpro assay signal (source data Figure 2, single replicates) (SARS-CoV-2 PLpro; Log(M) -3.69897, listed as 2 (Snyder495)): 60 and 59 and 86 | PLpro assay signal (source data Figure 2, single replicates) (SARS-CoV-2 PLpro; Log(M) -4, listed as 2 (Snyder495)): 70 and 66 and 64 | PLpro assay signal (source data Figure 2, single replicates) (SARS-CoV-2 PLpro; Log(M) -4.39794, listed as 2 (Snyder495)): 92 and 85 and 99 | PLpro assay signal (source data Figure 2, single replicates) (SARS-CoV-2 PLpro; Log(M) -4.69897, listed as 2 (Snyder495)): 136 and 126 and 144 | PLpro assay signal (source data Figure 2, single replicates) (SARS-CoV-2 PLpro; Log(M) -5.09691, listed as 2 (Snyder495)): 203 and 179 and 181 | PLpro assay signal (source data Figure 2, single replicates) (SARS-CoV-2 PLpro; Log(M) -5.39794, listed as 2 (Snyder495)): 314 and 305 and 289 | PLpro assay signal (source data Figure 2, single replicates) (SARS-CoV-2 PLpro; Log(M) -5.79588, listed as 2 (Snyder495)): 365 and 343 and 315 | PLpro assay signal (source data Figure 2, single replicates) (SARS-CoV-2 PLpro; Log(M) -6.09691, listed as 2 (Snyder495)): 476 and 447 and 368 | PLpro assay signal (source data Figure 2, single replicates) (SARS-CoV-2 PLpro; Log(M) -6.49485, listed as 2 (Snyder495)): 414 and 419 and 416 | PLpro assay signal (source data Figure 2, single replicates) (SARS-CoV-2 PLpro; Log(M) -6.79588, listed as 2 (Snyder495)): 421 and 453 and 465 | IC50 (SARS-CoV-2 PLpro): 5.1 µM | inhibition of virus replication (SARS-CoV-2): failed

C=CC(=O)Nc1ccc(C)c(C(=O)N[C@H](C)c2cccc3ccccc23)c1 [Compound 3, 5-acrylamide-2-methyl-N-[(1R)-1-naphthalen-1-ylethyl]benzamide]
PLpro assay signal (source data Figure 2, single replicates) (SARS-CoV-2 PLpro; Log(M) -3.69897, listed as 3 (Snyder530)): 91 and 88 and 87 | PLpro assay signal (source data Figure 2, single replicates) (SARS-CoV-2 PLpro; Log(M) -4, listed as 3 (Snyder530)): 107 (2×) and 106 | PLpro assay signal (source data Figure 2, single replicates) (SARS-CoV-2 PLpro; Log(M) -4.39794, listed as 3 (Snyder530)): 175 (2×) and 163 | PLpro assay signal (source data Figure 2, single replicates) (SARS-CoV-2 PLpro; Log(M) -4.69897, listed as 3 (Snyder530)): 282 and 274 and 281 | PLpro assay signal (source data Figure 2, single replicates) (SARS-CoV-2 PLpro; Log(M) -5.09691, listed as 3 (Snyder530)): 401 and 387 and 371 | PLpro assay signal (source data Figure 2, single replicates) (SARS-CoV-2 PLpro; Log(M) -5.39794, listed as 3 (Snyder530)): 551 and 511 and 480 | PLpro assay signal (source data Figure 2, single replicates) (SARS-CoV-2 PLpro; Log(M) -5.79588, listed as 3 (Snyder530)): 638 and 706 and 719 | PLpro assay signal (source data Figure 2, single replicates) (SARS-CoV-2 PLpro; Log(M) -6.09691, listed as 3 (Snyder530)): 726 and 781 and 797 | PLpro assay signal (source data Figure 2, single replicates) (SARS-CoV-2 PLpro; Log(M) -6.49485, listed as 3 (Snyder530)): 808 and 740 and 787 | PLpro assay signal (source data Figure 2, single replicates) (SARS-CoV-2 PLpro; Log(M) -6.79588, listed as 3 (Snyder530)): 765 and 796 and 803 | IC50 (SARS-CoV-2 PLpro): 6.4 µM | inhibition of virus replication (SARS-CoV-2): failed

— PMC7854729 (Nature Communications, 2021)
